The values that follow come from ChEMBL document CHEMBL5291721, “A preclinical secondary pharmacology resource illuminates target-adverse drug reaction associations of marketed drugs” (Nat Commun, 2023).

One assay deals with T1, Adenosine receptor A3 (Homo sapiens, UniProt P0DMS8).
T1 sequence (P0DMS8 whole entry): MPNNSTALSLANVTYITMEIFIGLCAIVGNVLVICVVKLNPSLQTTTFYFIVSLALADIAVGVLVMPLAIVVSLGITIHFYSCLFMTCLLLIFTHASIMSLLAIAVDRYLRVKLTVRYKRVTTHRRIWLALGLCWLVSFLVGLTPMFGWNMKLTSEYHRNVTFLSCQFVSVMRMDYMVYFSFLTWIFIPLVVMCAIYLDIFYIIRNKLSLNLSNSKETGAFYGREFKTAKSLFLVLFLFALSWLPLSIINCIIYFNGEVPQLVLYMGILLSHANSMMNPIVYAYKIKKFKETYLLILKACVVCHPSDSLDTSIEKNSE

Assay [1] addresses T2, Alpha-1A adrenergic receptor (Homo sapiens, UniProt P35348).
T2 sequence (P35348 whole entry): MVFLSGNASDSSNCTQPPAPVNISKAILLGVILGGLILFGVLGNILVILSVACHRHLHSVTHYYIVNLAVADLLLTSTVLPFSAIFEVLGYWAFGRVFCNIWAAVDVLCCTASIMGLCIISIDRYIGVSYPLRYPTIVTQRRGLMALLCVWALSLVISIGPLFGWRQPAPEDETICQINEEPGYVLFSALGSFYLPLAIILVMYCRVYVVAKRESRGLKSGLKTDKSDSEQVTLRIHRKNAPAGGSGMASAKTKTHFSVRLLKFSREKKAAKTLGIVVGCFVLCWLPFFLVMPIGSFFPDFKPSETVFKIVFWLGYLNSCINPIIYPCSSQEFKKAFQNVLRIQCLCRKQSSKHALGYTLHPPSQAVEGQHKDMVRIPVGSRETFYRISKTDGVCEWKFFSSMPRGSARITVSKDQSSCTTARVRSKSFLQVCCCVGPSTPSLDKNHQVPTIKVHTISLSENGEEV
Type of assay: functional, cell-based.

Assay [2] concerns the target T3, Alpha-2C adrenergic receptor (Homo sapiens, UniProt P18825).
T3 sequence (P18825 whole entry): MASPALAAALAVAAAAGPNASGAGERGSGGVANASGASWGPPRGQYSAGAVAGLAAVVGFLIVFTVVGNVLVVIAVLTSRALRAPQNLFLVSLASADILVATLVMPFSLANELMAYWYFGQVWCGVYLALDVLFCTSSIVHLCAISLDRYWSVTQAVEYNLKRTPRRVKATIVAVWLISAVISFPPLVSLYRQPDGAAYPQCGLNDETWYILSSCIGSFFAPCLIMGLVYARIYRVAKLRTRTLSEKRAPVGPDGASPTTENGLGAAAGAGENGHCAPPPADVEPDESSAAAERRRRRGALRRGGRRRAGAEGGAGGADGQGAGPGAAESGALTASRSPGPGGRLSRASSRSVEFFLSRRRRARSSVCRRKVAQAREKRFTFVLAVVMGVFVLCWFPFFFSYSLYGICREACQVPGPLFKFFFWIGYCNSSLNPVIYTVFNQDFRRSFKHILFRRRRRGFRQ
Type of assay: functional.

For assay [3], the target named is Beta-1 adrenergic receptor (Homo sapiens, UniProt P08588). Type of assay: functional.
The next assay deals with T4, B2 bradykinin receptor (Homo sapiens, UniProt P30411).
T4 sequence (P30411 whole entry): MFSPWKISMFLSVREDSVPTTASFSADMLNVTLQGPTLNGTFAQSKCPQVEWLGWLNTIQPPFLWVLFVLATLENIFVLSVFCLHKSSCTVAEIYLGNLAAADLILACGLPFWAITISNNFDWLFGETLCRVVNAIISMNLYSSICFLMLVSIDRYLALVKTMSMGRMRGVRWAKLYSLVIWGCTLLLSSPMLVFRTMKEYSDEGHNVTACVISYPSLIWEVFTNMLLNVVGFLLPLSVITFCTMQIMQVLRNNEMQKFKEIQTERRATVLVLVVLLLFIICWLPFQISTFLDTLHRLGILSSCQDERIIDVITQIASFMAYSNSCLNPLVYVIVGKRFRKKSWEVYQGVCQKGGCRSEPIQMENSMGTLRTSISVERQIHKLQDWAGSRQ

The next assay deals with Cannabinoid receptor 1 (Homo sapiens, UniProt P21554). Type of assay: functional, cell-based.
In another assay the target is T5, Endothelin-1 receptor (Homo sapiens, UniProt P25101).
T5 sequence (P25101 whole entry): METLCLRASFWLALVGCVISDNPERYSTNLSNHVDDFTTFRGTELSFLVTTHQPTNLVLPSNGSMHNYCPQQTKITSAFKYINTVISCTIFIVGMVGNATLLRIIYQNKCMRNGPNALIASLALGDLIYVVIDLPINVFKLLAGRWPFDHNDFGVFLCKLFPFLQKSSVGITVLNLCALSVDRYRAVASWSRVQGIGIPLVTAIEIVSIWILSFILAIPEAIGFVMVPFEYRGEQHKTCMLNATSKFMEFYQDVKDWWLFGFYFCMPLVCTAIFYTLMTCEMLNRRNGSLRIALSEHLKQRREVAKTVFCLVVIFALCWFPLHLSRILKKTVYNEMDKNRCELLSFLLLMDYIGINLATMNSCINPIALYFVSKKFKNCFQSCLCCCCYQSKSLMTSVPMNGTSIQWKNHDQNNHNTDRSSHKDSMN

The target in assay [4] is Gamma-aminobutyric acid receptor subunit alpha-1 (Rattus norvegicus, UniProt P62813). Type of assay: functional.
Assay [5] addresses T6, 5-hydroxytryptamine receptor 2C (Homo sapiens, UniProt P28335).
T6 sequence (P28335 whole entry): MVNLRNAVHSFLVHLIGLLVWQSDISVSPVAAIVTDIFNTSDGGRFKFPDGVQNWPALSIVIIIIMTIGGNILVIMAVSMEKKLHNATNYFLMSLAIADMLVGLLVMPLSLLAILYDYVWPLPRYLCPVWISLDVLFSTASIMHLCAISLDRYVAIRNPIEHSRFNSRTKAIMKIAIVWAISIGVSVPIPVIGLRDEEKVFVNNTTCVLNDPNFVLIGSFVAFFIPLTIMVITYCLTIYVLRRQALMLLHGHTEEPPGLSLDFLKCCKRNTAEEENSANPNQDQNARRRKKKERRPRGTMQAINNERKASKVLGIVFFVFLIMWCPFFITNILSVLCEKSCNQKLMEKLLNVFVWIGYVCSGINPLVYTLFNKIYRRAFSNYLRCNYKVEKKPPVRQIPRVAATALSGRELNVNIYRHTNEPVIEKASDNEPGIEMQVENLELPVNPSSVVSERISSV

Assay [6] concerns the target T2, Alpha-1A adrenergic receptor. Type of assay: functional, cell-based. This is another data set of the same source.
Assay [7] concerns the target Voltage-dependent L-type calcium channel subunit alpha-1C (Rattus norvegicus, UniProt P22002). It is filed as functional.
Further: assay procedure not described here.

Sequence of Cannabinoid receptor 1 (P21554 whole entry): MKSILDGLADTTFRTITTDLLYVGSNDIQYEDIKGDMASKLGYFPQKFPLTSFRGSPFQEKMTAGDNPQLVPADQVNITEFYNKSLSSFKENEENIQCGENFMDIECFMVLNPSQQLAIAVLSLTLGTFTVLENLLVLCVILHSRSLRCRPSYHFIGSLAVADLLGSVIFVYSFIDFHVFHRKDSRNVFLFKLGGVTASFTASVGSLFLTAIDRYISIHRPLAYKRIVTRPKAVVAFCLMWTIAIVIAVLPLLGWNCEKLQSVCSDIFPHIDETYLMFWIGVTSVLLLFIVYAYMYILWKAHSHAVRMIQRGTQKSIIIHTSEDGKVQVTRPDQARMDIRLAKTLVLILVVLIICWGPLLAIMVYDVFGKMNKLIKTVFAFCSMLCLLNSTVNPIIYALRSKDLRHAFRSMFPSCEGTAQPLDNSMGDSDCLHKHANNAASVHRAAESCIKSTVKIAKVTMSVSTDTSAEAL
Sequence of Beta-1 adrenergic receptor (P08588 whole entry): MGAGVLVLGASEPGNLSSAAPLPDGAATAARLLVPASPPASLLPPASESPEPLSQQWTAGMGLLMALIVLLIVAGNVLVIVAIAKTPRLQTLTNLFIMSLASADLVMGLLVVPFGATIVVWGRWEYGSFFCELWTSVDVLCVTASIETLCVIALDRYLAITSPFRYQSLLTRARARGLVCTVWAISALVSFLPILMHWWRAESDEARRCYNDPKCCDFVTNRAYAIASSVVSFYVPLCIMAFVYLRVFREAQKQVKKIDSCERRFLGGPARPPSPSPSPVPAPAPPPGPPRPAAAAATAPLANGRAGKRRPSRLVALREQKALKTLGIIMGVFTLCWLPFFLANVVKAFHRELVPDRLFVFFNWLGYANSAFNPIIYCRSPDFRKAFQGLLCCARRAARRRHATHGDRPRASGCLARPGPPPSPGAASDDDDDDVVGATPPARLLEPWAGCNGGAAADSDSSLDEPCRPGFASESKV
Sequence of Voltage-dependent L-type calcium channel subunit alpha-1C (P22002 whole entry): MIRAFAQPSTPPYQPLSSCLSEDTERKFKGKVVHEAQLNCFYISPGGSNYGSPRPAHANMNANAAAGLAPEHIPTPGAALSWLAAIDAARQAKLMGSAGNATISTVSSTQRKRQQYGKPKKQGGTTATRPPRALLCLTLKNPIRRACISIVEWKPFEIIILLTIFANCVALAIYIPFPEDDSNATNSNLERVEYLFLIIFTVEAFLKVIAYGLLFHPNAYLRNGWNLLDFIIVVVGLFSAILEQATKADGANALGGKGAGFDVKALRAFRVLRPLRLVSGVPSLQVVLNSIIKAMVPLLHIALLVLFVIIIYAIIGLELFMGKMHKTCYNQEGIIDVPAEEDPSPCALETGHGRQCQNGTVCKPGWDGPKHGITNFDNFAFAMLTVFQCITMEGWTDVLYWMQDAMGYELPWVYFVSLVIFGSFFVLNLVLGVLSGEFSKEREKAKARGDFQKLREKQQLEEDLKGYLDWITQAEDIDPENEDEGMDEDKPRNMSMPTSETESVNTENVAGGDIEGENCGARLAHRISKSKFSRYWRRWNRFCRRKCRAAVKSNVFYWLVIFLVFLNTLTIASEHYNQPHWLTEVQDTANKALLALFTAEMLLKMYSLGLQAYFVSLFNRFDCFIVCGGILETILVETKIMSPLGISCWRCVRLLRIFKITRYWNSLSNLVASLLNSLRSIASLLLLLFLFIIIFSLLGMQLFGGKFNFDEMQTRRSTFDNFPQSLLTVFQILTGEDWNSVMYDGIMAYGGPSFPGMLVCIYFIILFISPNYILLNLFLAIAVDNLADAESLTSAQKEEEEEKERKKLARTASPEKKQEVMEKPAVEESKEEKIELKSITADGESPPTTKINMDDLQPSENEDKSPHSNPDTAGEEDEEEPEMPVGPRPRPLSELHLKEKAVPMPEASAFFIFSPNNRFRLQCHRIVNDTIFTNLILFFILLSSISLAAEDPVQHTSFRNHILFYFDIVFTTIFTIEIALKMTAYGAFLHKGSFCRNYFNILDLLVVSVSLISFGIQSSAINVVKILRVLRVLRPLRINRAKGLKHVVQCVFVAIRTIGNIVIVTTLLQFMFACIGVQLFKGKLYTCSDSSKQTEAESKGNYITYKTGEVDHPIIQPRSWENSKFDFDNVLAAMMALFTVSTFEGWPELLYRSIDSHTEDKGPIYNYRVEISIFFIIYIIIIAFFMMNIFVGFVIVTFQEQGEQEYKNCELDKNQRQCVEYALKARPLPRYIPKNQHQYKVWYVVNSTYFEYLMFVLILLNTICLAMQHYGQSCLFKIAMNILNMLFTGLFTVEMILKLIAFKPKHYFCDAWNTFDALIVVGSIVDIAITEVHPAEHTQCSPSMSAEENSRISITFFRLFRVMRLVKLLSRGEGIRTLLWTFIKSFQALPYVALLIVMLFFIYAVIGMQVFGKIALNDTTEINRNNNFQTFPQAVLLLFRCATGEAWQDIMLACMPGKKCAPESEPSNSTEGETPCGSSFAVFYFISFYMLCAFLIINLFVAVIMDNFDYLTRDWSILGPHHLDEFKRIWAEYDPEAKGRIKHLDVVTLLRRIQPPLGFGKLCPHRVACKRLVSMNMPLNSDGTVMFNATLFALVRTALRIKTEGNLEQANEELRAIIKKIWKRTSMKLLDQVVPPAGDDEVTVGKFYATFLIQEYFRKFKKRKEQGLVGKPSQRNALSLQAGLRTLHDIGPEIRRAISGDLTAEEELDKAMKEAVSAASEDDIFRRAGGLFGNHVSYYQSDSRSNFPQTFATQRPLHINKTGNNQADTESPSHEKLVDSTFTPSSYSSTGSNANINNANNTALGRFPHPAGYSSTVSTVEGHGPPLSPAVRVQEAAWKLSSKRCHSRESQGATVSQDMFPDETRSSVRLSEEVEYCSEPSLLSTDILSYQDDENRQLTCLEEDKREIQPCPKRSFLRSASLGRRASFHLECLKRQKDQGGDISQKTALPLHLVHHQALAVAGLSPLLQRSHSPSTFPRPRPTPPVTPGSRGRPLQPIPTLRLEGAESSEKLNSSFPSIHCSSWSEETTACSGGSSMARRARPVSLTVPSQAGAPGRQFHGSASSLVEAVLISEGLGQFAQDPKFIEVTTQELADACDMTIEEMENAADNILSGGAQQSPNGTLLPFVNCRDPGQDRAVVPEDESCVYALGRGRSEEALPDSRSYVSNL
Sequence of Gamma-aminobutyric acid receptor subunit alpha-1 (P62813 whole entry): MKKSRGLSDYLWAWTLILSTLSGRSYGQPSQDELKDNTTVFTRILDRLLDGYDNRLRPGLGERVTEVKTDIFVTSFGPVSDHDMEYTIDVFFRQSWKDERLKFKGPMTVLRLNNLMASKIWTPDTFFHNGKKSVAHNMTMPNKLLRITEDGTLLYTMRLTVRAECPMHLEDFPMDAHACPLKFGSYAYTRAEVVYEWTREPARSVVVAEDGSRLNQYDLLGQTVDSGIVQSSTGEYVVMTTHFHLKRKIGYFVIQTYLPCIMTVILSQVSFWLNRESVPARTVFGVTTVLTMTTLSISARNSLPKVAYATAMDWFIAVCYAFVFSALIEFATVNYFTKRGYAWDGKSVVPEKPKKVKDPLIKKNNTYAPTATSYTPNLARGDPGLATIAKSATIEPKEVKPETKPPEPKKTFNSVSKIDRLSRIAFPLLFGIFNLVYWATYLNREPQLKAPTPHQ

In the case of `C[C@@H](NCCCc1cccc(C(F)(F)F)c1)c1cccc2ccccc12`, the concentration at half-maximal activity (AC50) at Adenosine receptor A3 is 8.1 µM; in [1], above 30 µM; in assay [2] it was 0.83 µM; in assay [3], 8.8 µM; on B2 bradykinin receptor, above 3 µM; on Cannabinoid receptor 1, above 30 µM. For the same compound, the AC50 at Endothelin-1 receptor is above 30 µM; in assay [4], above 30 µM; in [5], 0.73 µM; in assay [6], above 30 µM.

Take `CCN1CCN(Cc2ccc(Nc3ncc(F)c(-c4cc(F)c5nc(C)n(C(C)C)c5c4)n3)nc2)CC1` [ABEMACICLIB]: the AC50 (at Adenosine receptor A3; in assay [1]; in assay [2]; in assay [3]; on Cannabinoid receptor 1; at Endothelin-1 receptor) was above 30 µM in each case. Besides, the AC50 in assay [4], in assay [5] and in [6] was above 30 µM throughout.

Consider `COc1ccccc1OCCNCC(O)COc1cccc2[nH]c3ccccc3c12` (centres undefined) [CARVEDILOL], for which the half-maximal activity concentration (AC50) on Adenosine receptor A3 is 18.6 µM; in assay [1], above 30 µM; in assay [2] it was 0.061 µM; at B2 bradykinin receptor, above 30 µM; in assay [7], above 10 µM; on Cannabinoid receptor 1, above 30 µM. Also, the AC50 was above 30 µM at Endothelin-1 receptor, above 10 µM in [4], 1.1 µM in assay [5] and 0.3 µM in assay [6].

Turning to `C[C@@H](Oc1cc(-c2cnn(C3CCNCC3)c2)cnc1N)c1c(Cl)ccc(F)c1Cl` [CRIZOTINIB], the half-maximal activity concentration (AC50) on Adenosine receptor A3 was 8.93 µM; in assay [2], 1.2 µM; in assay [3], above 30 µM; in assay [7], 1.56 µM; on Cannabinoid receptor 1, above 10 µM; at Endothelin-1 receptor, above 30 µM. Also, the AC50 in assay [4] and in assay [5] was above 30 µM each time.

`CN1C[C@H](C(=O)N[C@]2(C)O[C@@]3(O)[C@@H]4CCCN4C(=O)[C@H](Cc4ccccc4)N3C2=O)C=C2c3cccc4[nH]cc(c34)C[C@H]21` [ERGOTAMINE]: the AC50 on Adenosine receptor A3 was above 30 µM; in assay [1], 3.1 µM; in assay [2] it was 0.14 µM; in assay [3] it was above 30 µM; on Cannabinoid receptor 1, above 30 µM; on Endothelin-1 receptor, above 30 µM. In addition, the results for the half-maximal activity concentration (AC50) in assay [4] and in assay [5] were above 30 µM and 3.8 µM, respectively.

Consider `CO[C@H]1/C=C/O[C@@]2(C)Oc3c(C)c(O)c4c(O)c(c(/C=N/N5CCN(C)CC5)c(O)c4c3C2=O)NC(=O)/C(C)=C\C=C\[C@H](C)[C@H](O)[C@@H](C)[C@@H](O)[C@@H](C)[C@H](OC(C)=O)[C@@H]1C` [RIFAMPIN], for which the AC50 was 27 µM on Adenosine receptor A3; above 30 µM in assay [1]; 11 µM in assay [2]; 28 µM in assay [3]; 18.6 µM at B2 bradykinin receptor; above 30 µM in assay [7]. The AC50 (on Cannabinoid receptor 1; at Endothelin-1 receptor; in assay [4]; in assay [6]) was above 30 µM each time.

In the case of `CN(C)CCc1c[nH]c2ccc(Cn3cncn3)cc12` [RIZATRIPTAN], the AC50 was above 30 µM on Adenosine receptor A3; above 30 µM in assay [1]; 20.8 µM in [2]; above 10 µM in assay [3]; above 30 µM on B2 bradykinin receptor; above 10 µM in assay [7]. In addition, the AC50 (on Cannabinoid receptor 1; on Endothelin-1 receptor; in [4]; in assay [6]) was above 30 µM in each case.

For `CC(C)c1nc(N(C)S(C)(=O)=O)nc(-c2ccc(F)cc2)c1/C=C/[C@@H](O)C[C@@H](O)CC(=O)O` [ROSUVASTATIN], the AC50 (on Adenosine receptor A3; in assay [1]; in [2]; in assay [3]; at B2 bradykinin receptor; on Cannabinoid receptor 1) was above 30 µM each time. Also, the AC50 (at Endothelin-1 receptor; in [4]; in assay [5]; in assay [6]) was above 30 µM in each case.

In the case of `OC[C@H]1O[C@@](CO)(O[C@H]2O[C@H](CO)[C@@H](O)[C@H](O)[C@H]2O)[C@@H](O)[C@@H]1O` [SUCROSE], the AC50 (on Adenosine receptor A3; in assay [1]; at B2 bradykinin receptor; at Cannabinoid receptor 1; on Endothelin-1 receptor; in [4]) was above 30 µM throughout. In addition, the AC50 in assay [5] and in assay [6] was above 30 µM throughout.

For `CCN(CC)CCNC(=O)c1c(C)[nH]c(/C=C2\C(=O)Nc3ccc(F)cc32)c1C` [SUNITINIB], the AC50 on Adenosine receptor A3 is 8.4 µM; in assay [2] it was 1.77 µM; at B2 bradykinin receptor, 2.5 µM; in [7], above 30 µM; on Cannabinoid receptor 1, above 30 µM; on Endothelin-1 receptor, 8.3 µM. Moreover, the AC50 in assay [4] was above 30 µM; in assay [5] it was 2.25 µM.

Consider `CC(S)C(=O)NCC(=O)O` (centres undefined) [TIOPRONIN], for which the AC50 (at Adenosine receptor A3; in assay [1]; in [2]; in assay [3]; at Cannabinoid receptor 1; on Endothelin-1 receptor) was above 30 µM each time. For the same compound, the AC50 in assay [4], in assay [5] and in [6] was above 30 µM in each case.

In the case of `C[C@H](CCC(=O)O)[C@H]1CC[C@H]2[C@@H]3[C@@H](O)C[C@@H]4C[C@H](O)CC[C@]4(C)[C@H]3CC[C@]12C` [URSODIOL], the AC50 (on Adenosine receptor A3; in [1]; in assay [2]; in assay [3]; at Cannabinoid receptor 1; at Endothelin-1 receptor) was above 30 µM throughout. For the same compound, the AC50 in assay [4], in assay [5] and in [6] was above 30 µM in each case.
